# Tests used:
# HEK293 = test: Cytotoxicity against human HEK293 cells after 72 hrs by luminescence assay; type: cell-based; settings: hek293, 72 h
# Raji = test: Cytotoxicity against human Raji cells after 72 hrs by luminescence assay; type: cell-based
# HepG2 = test: Cytotoxicity against human HepG2 cells after 72 hrs by luminescence assay; type: cell-based; settings: hepg2, 72 h
# BJ = test: Cytotoxicity against human BJ cells after 72 hrs by luminescence assay; type: cell-based
# [1] = Selectivity ratio of EC50 for human HepG2 cells to EC50 for Plasmodium falciparum
structure (smiles),measurement,setting,value
Cl.O=C(CCc1ccccc1)c1cc(F)ccc1OCC(O)CN(Cc1ccccc1)c1ccccc1 (racemic),Activity,HEK293,Non-toxic
same,Activity,Raji,Non-toxic
same,Activity,HepG2,Non-toxic
same,Activity,BJ,Non-toxic
same,selectivity ratio,[1],> 10
Cc1cccc(N(CC(O)COc2ccc(F)cc2C(=O)CCc2ccccc2)c2ccccc2)c1.Cl (racemic),Activity,HEK293,Non-toxic
same,Activity,Raji,Non-toxic
same,Activity,HepG2,Non-toxic
same,Activity,BJ,Non-toxic
same,selectivity ratio,[1],> 10
COc1cccc(N(CC(O)COc2ccc(F)cc2C(=O)CCc2ccccc2)c2ccccc2)c1.Cl (racemic),Activity,HEK293,Non-toxic
same,Activity,Raji,Non-toxic
same,Activity,HepG2,Non-toxic
same,Activity,BJ,Non-toxic
same,selectivity ratio,[1],> 10
CN(CCc1ccccc1)CC(O)COc1ccc(F)cc1C(=O)CCc1ccccc1.Cl (racemic),Activity,HEK293,Non-toxic
same,Activity,Raji,Non-toxic
same,Activity,HepG2,Non-toxic
same,Activity,BJ,Non-toxic
same,selectivity ratio,[1],> 10
CCN(CC)CC(O)COc1ccc(F)cc1C(=O)CCc1ccccc1.Cl (racemic),Activity,HEK293,Non-toxic
same,Activity,Raji,Non-toxic
same,Activity,HepG2,Non-toxic
same,Activity,BJ,Non-toxic
same,selectivity ratio,[1],> 10
CCCN(CCC)CC(O)COc1ccc(F)cc1C(=O)CCc1ccccc1.Cl (racemic),Activity,HEK293,Non-toxic
same,Activity,Raji,Non-toxic
same,Activity,HepG2,Non-toxic
same,Activity,BJ,Non-toxic
same,selectivity ratio,[1],> 10
CCCCN(CCCC)CC(O)COc1ccc(F)cc1C(=O)CCc1ccccc1.Cl (racemic),Activity,HEK293,Non-toxic
same,Activity,Raji,Non-toxic
same,Activity,HepG2,Non-toxic
same,Activity,BJ,Non-toxic
same,selectivity ratio,[1],> 10
Cl.O=C(CCc1ccccc1)c1cc(F)ccc1OCC(O)CN(C1CCCCC1)C1CCCCC1 (racemic),Activity,HEK293,Non-toxic
same,Activity,Raji,Non-toxic
same,Activity,HepG2,Non-toxic
same,Activity,BJ,Non-toxic
same,selectivity ratio,[1],> 10
Cl.O=C(CCc1ccc(F)cc1)c1cc(F)ccc1OCC(O)CNCc1ccccc1 (racemic),Activity,HEK293,Non-toxic
same,Activity,Raji,Non-toxic
same,Activity,HepG2,Non-toxic
same,Activity,BJ,Non-toxic
same,selectivity ratio,[1],> 10
Cl.O=C(CCc1ccc(F)cc1)c1cc(F)ccc1OCC(O)CN(Cc1ccccc1)c1ccccc1 (racemic),Activity,HEK293,Non-toxic
same,Activity,Raji,Non-toxic
same,Activity,HepG2,Non-toxic
same,Activity,BJ,Non-toxic
same,selectivity ratio,[1],> 10
Cc1cccc(N(CC(O)COc2ccc(F)cc2C(=O)CCc2ccc(F)cc2)c2ccccc2)c1.Cl (racemic),Activity,HEK293,Non-toxic
same,Activity,Raji,Non-toxic
same,Activity,HepG2,Non-toxic
same,Activity,BJ,Non-toxic
same,selectivity ratio,[1],> 10
COc1cccc(N(CC(O)COc2ccc(F)cc2C(=O)CCc2ccc(F)cc2)c2ccccc2)c1.Cl (racemic),Activity,HEK293,Non-toxic
same,Activity,Raji,Non-toxic
same,Activity,HepG2,Non-toxic
same,Activity,BJ,Non-toxic
same,selectivity ratio,[1],> 10
CN(CCc1ccccc1)CC(O)COc1ccc(F)cc1C(=O)CCc1ccc(F)cc1.Cl (racemic),Activity,HEK293,Non-toxic
same,Activity,Raji,Non-toxic
same,Activity,HepG2,Non-toxic
same,Activity,BJ,Non-toxic
same,selectivity ratio,[1],> 10
CCN(CC)CC(O)COc1ccc(F)cc1C(=O)CCc1ccc(F)cc1.Cl (racemic),Activity,HEK293,Non-toxic
same,Activity,Raji,Non-toxic
same,Activity,HepG2,Non-toxic
same,Activity,BJ,Non-toxic
same,selectivity ratio,[1],> 10
CCCN(CCC)CC(O)COc1ccc(F)cc1C(=O)CCc1ccc(F)cc1.Cl (racemic),Activity,HEK293,Non-toxic
same,Activity,Raji,Non-toxic
same,Activity,HepG2,Non-toxic
same,Activity,BJ,Non-toxic
same,selectivity ratio,[1],> 10
CCCCN(CCCC)CC(O)COc1ccc(F)cc1C(=O)CCc1ccc(F)cc1.Cl (racemic),Activity,HEK293,Non-toxic
same,Activity,Raji,Non-toxic
same,Activity,HepG2,Non-toxic
same,Activity,BJ,Non-toxic
same,selectivity ratio,[1],> 10
CC(C)N(CC(O)COc1ccc(F)cc1C(=O)CCc1ccc(F)cc1)c1ccccc1.Cl (racemic),Activity,HEK293,Non-toxic
same,Activity,Raji,Non-toxic
same,Activity,HepG2,Non-toxic
same,Activity,BJ,Non-toxic
same,selectivity ratio,[1],> 10
Cl.O=C(CCc1ccc(F)cc1)c1cc(F)ccc1OCC(O)CN(C1CCCCC1)C1CCCCC1 (racemic),Activity,HEK293,Non-toxic
same,Activity,Raji,Non-toxic
same,Activity,HepG2,Non-toxic
same,Activity,BJ,Non-toxic
same,selectivity ratio,[1],> 10
Cl.O=C(CCc1ccccc1)c1ccccc1OCC(O)CN1CCCCC1 (racemic),Activity,HEK293,Non-toxic
same,Activity,Raji,Non-toxic
same,Activity,HepG2,Non-toxic
same,Activity,BJ,Non-toxic
same,selectivity ratio,[1],> 10
Cl.O=C(CCc1ccccc1)c1ccccc1OCC(O)CN1CCC(Cc2ccccc2)CC1 (racemic),Activity,HEK293,Non-toxic
same,Activity,Raji,Non-toxic
same,Activity,HepG2,Non-toxic
same,Activity,BJ,Non-toxic
same,selectivity ratio,[1],> 10
Cl.O=C(CCc1ccccc1)c1ccccc1OCC(O)CN1CCC(c2ccc(Cl)cc2)CC1 (racemic),Activity,HEK293,Non-toxic
same,Activity,Raji,Non-toxic
same,Activity,HepG2,Non-toxic
same,Activity,BJ,Non-toxic
same,selectivity ratio,[1],> 10
Cl.O=C(CCc1ccccc1)c1ccccc1OCC(O)CN1CCC(O)(Cc2ccccc2)CC1 (racemic),Activity,HEK293,Non-toxic
same,Activity,Raji,Non-toxic
same,Activity,HepG2,Non-toxic
same,Activity,BJ,Non-toxic
same,selectivity ratio,[1],> 10
Cl.O=C(CCc1ccccc1)c1ccccc1OCC(O)CN1CCC(O)(c2ccc(Cl)cc2)CC1 (racemic),Activity,HEK293,Non-toxic
same,Activity,Raji,Non-toxic
same,Activity,HepG2,Non-toxic
same,Activity,BJ,Non-toxic
same,selectivity ratio,[1],> 10
Cl.O=C(CCc1ccccc1)c1ccccc1OCC(O)CN1CCN(c2ccccc2)CC1 (racemic),Activity,HEK293,Non-toxic
same,Activity,Raji,Non-toxic
same,Activity,HepG2,Non-toxic
same,Activity,BJ,Non-toxic
same,selectivity ratio,[1],> 10
Cl.O=C(CCc1ccccc1)c1ccccc1OCC(O)CN1CCN(Cc2ccccc2)CC1 (racemic),Activity,HEK293,Non-toxic
same,Activity,Raji,Non-toxic
same,Activity,HepG2,Non-toxic
same,Activity,BJ,Non-toxic
same,selectivity ratio,[1],> 10
Cc1ccccc1N1CCN(CC(O)COc2ccccc2C(=O)CCc2ccccc2)CC1.Cl (racemic),Activity,HEK293,Non-toxic
same,Activity,Raji,Non-toxic
same,Activity,HepG2,Non-toxic
same,Activity,BJ,Non-toxic
same,selectivity ratio,[1],> 10
Cc1cccc(N2CCN(CC(O)COc3ccccc3C(=O)CCc3ccccc3)CC2)c1.Cl (racemic),Activity,HEK293,Non-toxic
same,Activity,Raji,Non-toxic
same,Activity,HepG2,Non-toxic
same,Activity,BJ,Non-toxic
same,selectivity ratio,[1],> 10
COc1ccccc1N1CCN(CC(O)COc2ccccc2C(=O)CCc2ccccc2)CC1.Cl (racemic),Activity,HEK293,Non-toxic
same,Activity,Raji,Non-toxic
same,Activity,HepG2,Non-toxic
same,Activity,BJ,Non-toxic
same,selectivity ratio,[1],> 10

# From ChEMBL document CHEMBL1914304 (J Med Chem, 2011)
